Consider 21 compounds from ChEMBL document CHEMBL5537111, “Structure and function of SARS-CoV and SARS-CoV-2 main proteases and their inhibition: A comprehensive review” (Eur J Med Chem, 2023).

By EC50 is commonly meant the concentration at which the effect is half-maximal. As a reminder, the IC50 is the concentration at which inhibition is half-maximal. In general, Kd refers to the concentration at which binding is half-saturated. Usually CC50 stands for the concentration giving 50% cytotoxicity. As a reminder, the Ki is the equilibrium dissociation constant of an inhibitor or competing ligand from its target.

The structures appear in SMILES notation.

Series [1] deals with SARS-CoV-2. It counts as functional, organism-based. To be noted: Severe acute respiratory syndrome coronavirus 2, Vero.
Series [2] deals with T1, Replicase polyprotein 1ab (Severe acute respiratory syndrome coronavirus 2, UniProt P0DTD1).
Series [3] concerns SARS-CoV-2. It counts as functional, organism-based. The following applies: Severe acute respiratory syndrome coronavirus 2, Calu-3, 48 h.
Series [4] concerns SARS-CoV-2. As to the kind of experiment: microbe, parasite or virus in culture. The following applies: Severe acute respiratory syndrome coronavirus 2, Vero C1008.
The test system of series [5] is SARS-CoV-2. The class given is functional, organism-based. The following applies: Severe acute respiratory syndrome coronavirus 2, Vero C1008, 120 h.
For series [6], the target named is T1, Replicase polyprotein 1ab. This is another data set of the same source.
In series [7] the test system is SARS-CoV-2. It counts as functional, organism-based. To be noted: Severe acute respiratory syndrome coronavirus 2, A549-ACE2.
Series [8] relates to SARS-CoV-2. As to the kind of experiment: microbe, parasite or virus in culture. To be noted: Severe acute respiratory syndrome coronavirus 2, B.1.1.7, Caco-2, 48 h.
Series [9] relates to SARS-CoV-2. Kind of series: microbe, parasite or virus in culture. The following applies: Severe acute respiratory syndrome coronavirus 2, Vero C1008, 72 h.
The target of series [10] is T2, Replicase polyprotein 1a (Severe acute respiratory syndrome-related coronavirus, UniProt P0C6U8).
In series [11] the test system is SARS-CoV-2. As to the kind of experiment: microbe, parasite or virus in culture. To be noted: Severe acute respiratory syndrome coronavirus 2, B.1.1.7, Caco-2.
The target of series [12] is T1, Replicase polyprotein 1ab. This is another data set of the same source.
Series [13] has as its system SARS-CoV-2. The class given is functional, organism-based. The following applies: Severe acute respiratory syndrome coronavirus 2.
Series [14] addresses T1, Replicase polyprotein 1ab. Kind of series: Binding affinity to SARS-CoV-2 MPro assessed as dissociation constant by FRET analysis.
In series [15] the test system is SARS-CoV-2. Kind of series: microbe, parasite or virus in culture. The following applies: Severe acute respiratory syndrome coronavirus 2, Vero C1008. The source holds these as a separate data set.
Series [16] concerns SARS-CoV-2. Kind of series: Antiviral activity against SARS-CoV-2 Omicron BA.1 infected in human A549-hACE2-TMPRSS2 cells assessed as reduction in viral replication pre-incubated with compound followed by viral infection measured after 72 hrs by ELISA assay. It counts as functional, organism-based. The following applies: Severe acute respiratory syndrome coronavirus 2, Omicron BA.1, A549-hACE2-TMPRSS2.

Series [17] in a line: Cytotoxicity against African green monkey Vero cells assessed as reduction in cell growth measured after 72 hrs by MTT assay. The class given is toxicity, cell-based. To be noted: chlorocebus sabaeus. On the technique in general: Tetrazolium assays rely on reduction of a dye to a coloured formazan, in cell work by metabolically active cells.
The test system of series [18] is SARS-CoV-2. As to the kind of experiment: microbe, parasite or virus in culture. The following applies: Severe acute respiratory syndrome coronavirus 2, Vero C1008, 72 h. The source holds these as a separate data set.
Series [19] addresses T2, Replicase polyprotein 1a. This is another data set of the same source.
The next series concerns SARS-CoV. Kind of series: microbe, parasite or virus in culture. To be noted: Severe acute respiratory syndrome-related coronavirus, Vero C1008, 72 h.
The next series concerns the target Procathepsin L (Homo sapiens, UniProt P07711). As to the kind of experiment: Inhibition of cathepsin L (unknown origin).

Sequence of Procathepsin L (P07711 whole entry): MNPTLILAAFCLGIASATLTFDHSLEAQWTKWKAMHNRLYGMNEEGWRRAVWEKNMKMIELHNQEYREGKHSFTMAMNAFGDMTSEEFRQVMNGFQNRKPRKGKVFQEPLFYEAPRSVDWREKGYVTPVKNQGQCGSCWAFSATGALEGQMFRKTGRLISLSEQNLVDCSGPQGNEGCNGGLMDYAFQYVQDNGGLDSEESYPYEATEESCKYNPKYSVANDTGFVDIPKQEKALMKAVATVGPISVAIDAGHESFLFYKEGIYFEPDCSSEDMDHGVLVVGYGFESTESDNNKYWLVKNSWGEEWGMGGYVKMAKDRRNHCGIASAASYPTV

For the compound `COC(=O)[C@]12CCC(C)(C)C[C@H]1[C@H]1C(=O)C=C3[C@@]4(C)C=C(C#N)C(=O)C(C)(C)[C@@H]4CC[C@@]3(C)[C@]1(C)CC2` [BARDOXOLONE METHYL], the EC50 was found to be 0.29 µM in the series with SARS-CoV-2 [1] and 0.2 µM in the series with SARS-CoV-2 [3]. In [2], this compound yielded an IC50 of 5.81 µM.
Turning to `CN(C)C(=O)COc1ccc(-c2cccc3[nH]ncc23)cc1C=O`, the 50% effective concentration (EC50) in the series on SARS-CoV-2 [4] stood at 2.5 µM.
For `CC(C)(C)NC(=O)[C@@H](c1cccnc1)N(C(=O)c1ccco1)c1ccc(C(C)(C)C)cc1`, the EC50 in the series with SARS-CoV-2 [5] was > 20 µM.
As to `C[C@@H](OC(C)(C)C)[C@H](NC(=O)OCc1ccccc1)C(=O)N[C@@H](CC1CCCCC1)C(=O)NN(CCC(N)=O)C(=O)C(Cl)Cl`, the concentration for half-maximal inhibition (IC50) in [6] was 68 µM. Also, in the series on SARS-CoV-2 [7], the 50% effective concentration (EC50) was 0.01 µM.
In the case of `CC1(C)[C@@H]2[C@@H](C(=O)N[C@H](C=O)C[C@@H]3CCNC3=O)N(C(=O)COc3ccccc3)C[C@@H]21`, the EC50 with SARS-CoV-2 [8] came to 1.06 µM; in the series with SARS-CoV-2 [9] it was 0.37 µM. The figures for the concentration for half-maximal inhibition (IC50) (at Replicase polyprotein 1a [10]; in series [2]) were 0.099 µM and 0.054 µM, respectively.
Regarding `CC(C)C[C@H](NC(=O)OCc1ccccc1)C(=O)N[C@H](C=O)C[C@@H]1CCNC1=O`, the IC50 on Replicase polyprotein 1a [10] came out at 0.07 µM.
As for `CC(C)(C)NC(=O)N[C@H](C(=O)N1C[C@H]2[C@@H]([C@H]1C(=O)NC(CC1CCC1)C(=O)C(N)=O)C2(C)C)C(C)(C)C` (stereo partly specified) [BOCEPREVIR], the EC50 amounted to 2.97 µM in the series with SARS-CoV-2 [11], 15.6 µM with SARS-CoV-2 [4] and 15.6 µM in the series with SARS-CoV-2 [9]. The compound also returned an IC50 against Replicase polyprotein 1a [10] of 6.63 µM.
Turning to `C=CC(=O)N[C@H](CC(=C)C)C(=O)N1C[C@@H](C(=O)N[C@H](Cc2ccccc2)C(=O)NC)[C@H](c2cccc(C(F)(F)F)c2)C1`, the results for the half-inhibitory concentration (IC50) (in series [12]; against Replicase polyprotein 1a [10]) were 2 µM and 3.5 µM, respectively. The EC50 in the series with SARS-CoV-2 [1] amounted to 33 µM.
Consider `CCOC(=O)/C=C/[C@H](C[C@@H]1CCNC1=O)NC(=O)[C@H](CC(C)C)NC(=O)[C@@H](NC(=O)OCc1ccccc1)[C@@H](C)OC(C)(C)C`, for which, in [2], the IC50 is 151 µM.
Turning to `CC1(C)[C@@H]2[C@@H](C(=O)N[C@H](C=O)C[C@@H]3CCNC3=O)N(C(=O)COc3ccc(OC(F)(F)F)cc3)C[C@@H]21`, the EC50 came out at 0.86 µM with SARS-CoV-2 [9] and 0.0012 µM in the series on SARS-CoV-2 [13].
In the case of `CC(C)c1nc(CN(C)C(=O)N[C@@H](CCN2CCOCC2)C(=O)N[C@H](CC[C@H](Cc2ccccc2)NC(=O)OCc2cncs2)Cc2ccccc2)cs1` [COBICISTAT], the Kd in [14] was determined as 2.2 µM. The compound further displayed a 50% effective concentration (EC50) with SARS-CoV-2 [5] of 2.74 µM. In addition, in [2], the IC50 was found to be 6.7 µM.
Consider `CC(C)C[C@H](NC(=O)[C@@H](NC(=O)OCc1ccccc1)C(C)C)C(=O)N[C@H](C=O)C[C@@H]1CCNC1=O`, for which, in the series with SARS-CoV-2 [9], the concentration for a half-maximal effect (EC50) was > 0.01 µM.
In the case of `C=C(C)[C@@H]1CC[C@]2(C(=O)O)CC[C@]3(C)[C@H](CC[C@@H]4[C@@]5(C)CC[C@H](O)C(C)(C)[C@@H]5CC[C@]43C)[C@@H]12` [BETULINIC ACID], the EC50 in the series on SARS-CoV-2 [15] was > 10 µM. This compound gave an IC50 in series [2] of 10 µM.
In the case of `C=CC(=O)N(CCC(N)=O)NC(=O)[C@H](CC(C)C)NC(=O)[C@@H](NC(=O)OCc1ccccc1)[C@@H](C)OC(C)(C)C`, in the series with SARS-CoV-2 [16], the EC50 stood at 0.7 µM. The compound further came in with a 50% inhibitory concentration (IC50) in [2] of 0.034 µM.
With `C[C@@H](NCCCc1cccc(C(F)(F)F)c1)c1cccc2ccccc12`, the CC50 at 72 h in series [17] is 4.25 µM. The compound also yielded a concentration giving a half-maximal response (EC50) with SARS-CoV-2 [18] of 2.93 µM.
`C[C@@H](OC(C)(C)C)[C@H](NC(=O)OCc1ccccc1)C(=O)N[C@@H](CC1CCCCC1)C(=O)N[C@H](C=O)C[C@@H]1CCNC1=O`: on Replicase polyprotein 1a [19], the Ki came out at 0.053 µM. In addition, the EC50 in the series on SARS-CoV was determined as 0.6 µM; in the series on SARS-CoV-2 [9], 0.03 µM.
The compound `CCOc1cc2ncc(C#N)c(Nc3ccc(F)c(Cl)c3)c2cc1NC(=O)/C=C/CN(C)C` [PELITINIB] returned an EC50 with SARS-CoV of 1.25 µM.
Turning to `O=C(c1cccc(Cn2[se]c3ccccc3c2=O)c1)N1CCOCC1`, the EC50 in the series on SARS-CoV-2 [1] amounted to 3.74 µM. The compound also displayed a half-inhibitory concentration (IC50) in series [2] of 0.000345 µM.
In the series with SARS-CoV-2 [9], `CCCCC1CCC(COC(=O)N[C@@H](CC(C)C)C(=O)N[C@H](C=O)C[C@@H]2CCNC2=O)CC1` (stereo partly specified) yielded an EC50 of 0.15 µM. Besides, the IC50 against Replicase polyprotein 1a [10] stood at 0.9 µM; in series [2] it was 0.17 µM.
Take `CCOC(=O)/C=C/[C@H](C[C@@H]1CCNC1=O)NC(=O)[C@H](Cc1ccccc1)NC(=O)[C@H](N)Cc1ccccc1`: the EC50 in the series with SARS-CoV-2 [16] stood at 0.0082 µM. In addition, the IC50 turned out to be 0.06 µM against Procathepsin L and 0.9 µM in series [2].
Consider `CCOC(=O)c1cc(=O)oc2cc(O)c(O)cc12`, for which the EC50 in the series with SARS-CoV-2 [15] came out at 112 µM. For the same compound, the concentration for half-maximal inhibition (IC50) in [2] stood at 46 µM.
